Patent publication US6440935B1, “Inhibition of eucaryotic pathogens and neoplasms and stimulation of fibroblasts and lymphocytes with lytic peptides” (priority 1987, dated 2002)
Where two headings read alike, the source gives them in different places. Residues, ends and D or L forms follow the SMILES beside them. No end group written: not given here.

Legend:
eucaryotes = assay: Lytic activity, general statements of the description; conditions: general statement, no test described
Brucella abortus [1] = format: cell-based; conditions: 50 μM
E. coli E/2/64 = assay: Lysozyme/cecropin synergism against E. coli (plate growth)
[2] = system: Plasmodium falciparum in human red blood cells; conditions: for 3H-Hypoxanthine Uptake: 24 hours
Saccharomyces cerevisiae = assay: Effect of lytic peptides on S. cerevisiae (plate count); conditions: 1 hour at 37° C., PBS pH 6.8, 500 at 0 μM
Brucella abortus [3] = format: in vivo, BALB/C mice; conditions: 0.176 mg/day for 4 days from day 12 post infection; sacrificed day 16; control 8.15 × 10^3
[4] = EL-4 cytotoxicity by chromium release; format: cell-based; conditions: for cytotoxicity at 30 min, 100 μM: mouse, EL-4 cells
Procedure: (§1) The EL-4 cells were then incubated for 30 minutes in the presence of various peptides at different concentrations. Cytotoxicity was taken as a percentage of chromium released (measured in the culture supernatant) relative to the chromium released by EL-4 cells lysed by detergent.
(§2) Similar chromium release data were obtained using the same procedure with a 100 μM concentration of peptide, but with EL-4 cell concentrations of 2×10^6, 10^6, and 5×10^5 cells in 0.5 ml medium.
(§3) The chromium release data was also obtained by using the supernatant from unlabeled EL-4 cells cultured for 30 minutes in the presence of 100 μM peptide as medium for […] EL-4 cultured as described above. The percent cytotoxicity calculated as described above was 20.16 for cecropin SB-37, 19.73 for *cecropin SB-37, 41.96 for Shiva 1, and 106.67 for melittin.

EL-4 cells = assay: EL-4 cytotoxicity by chromium release; format: cell-based; conditions: 30 minutes, 10^6 EL-4 cells
Procedure: as §1, §2, §3

[5] = S. intermedius 19930 viability in lytic peptide/lysozyme; conditions: Viability (%), lysozyme at ten times
mammary carcinoma = assay: In vivo effect on murine mammary carcinoma; parameters: species or system BALB/c mouse; conditions: 1.76 mg (88 mg/kg) daily, three days, injected directly into the carcinoma
Procedure: One BALB/c mouse was given daily injections of 1.76 mg (88 mg/kg) Shiva 1 in PBS for three consecutive days as described in the foregoing examples.

[6] = system: T. cruzi intracellular amastigotes in Vero cells; assay: In vitro effect on T. cruzi intracellular amastigotes in Vero cells; format: cell-based, Trypanosoma cruzi; conditions: one hour period, relative to no peptide
Procedure: Vero cells at 10^5 cells/ml in MEM-FBS were mixed with Trypanosoma Cruzi in the trypomastigote stage at 10^5 cells/ml in the same medium at a 1:1 ratio of Vero cells to trypomastigotes. The mixture of Vero cells and trypomastigotes was cultured at 37° C. in a 5% CO2 atmosphere in microscope slide chambers. At 24 hours, cecropin SB-37 was added to the chambers, except for a set of controls, at a final concentration of 100 μM. […]

[7] = EL-4 cell viability by trypan blue exclusion; format: cell-based; conditions: one hour, 95% at 0 μM
Procedure: EL-4 lymphoma cells were suspended in RPMI 1640 at 5,000,000/ml with 500,000 cells per well. Various concentrations of cecropin SB-37 and Shiva 1 were added and the wells incubated at 37° C. in a 5% CO2 atmosphere for one hour. Viability was determined by microscopic observation for trypan blue exclusion.

[8] = system: Erwinia caratovora subsp. carotova; assay: Plant pathogen LD50 in cecropin SB-37/lysozyme; format: cell-based; conditions: incubation at 30° C.
[9] = system: Xanthomonas campestris pv. campestris; assay: Plant pathogen LD50 in cecropin SB-37/lysozyme; format: cell-based; conditions: incubation at 30° C.
[10] = system: Pseudomonas syringae pv. tabaci; assay: Plant pathogen LD50 in cecropin SB-37/lysozyme; format: cell-based; conditions: incubation at 30° C.
[11] = 100 μM, 2 × 10^6 cells per 0.5 ml, read-out: Percent Cytotoxicity
[12] = supernatant from unlabeled EL-4 cells cultured 30 minutes with 100 μM peptide used as medium for labeled EL-4, read-out: percent cytotoxicity

cecropin A
lytic activity compared with other lytic peptides (eucaryotes): about as lytically active as cecropin B and SB-37

Cecropin B: naturally occurring potent bacteriolytic peptide obtainable from insects; sequence in Table 1 (KWKVFKKIEKMGRNIRNGIVKAGPAIAVLGEAKAL; ends and bridges not checked; UniProt P01508 27-61, looked up)
Results (growth of Brucella abortus) (Brucella abortus [1]): No growth
growth of E. coli (plate counts) (E. coli E/2/64; 5 μM, 90 minutes at room temperature): no growth of E. coli
growth of E. coli (E. coli E/2/64; one nanomolar and one micromolar): positive E. coli growth
3H-Hypoxanthine Uptake ([2]; 1 μM, P. falciparum 0.0625 PPRC): 380 cpm
3H-Hypoxanthine Uptake ([2]; 1 μM, P. falciparum 0.125 PPRC): 565 cpm
3H-Hypoxanthine Uptake ([2]; 1 μM, P. falciparum 0.25 PPRC): 1293 cpm
3H-Hypoxanthine Uptake ([2]; 1 μM, P. falciparum 0.5 PPRC): 2860 cpm
3H-Hypoxanthine Uptake ([2]; 20 μM, P. falciparum 0.0625 PPRC): 405 cpm
3H-Hypoxanthine Uptake ([2]; 20 μM, P. falciparum 0.125 PPRC): 495 cpm
3H-Hypoxanthine Uptake ([2]; 20 μM, P. falciparum 0.25 PPRC): 1066 cpm
3H-Hypoxanthine Uptake ([2]; 20 μM, P. falciparum 0.5 PPRC): 2333 cpm
3H-Hypoxanthine Uptake ([2]; 200 μM, P. falciparum 0.0625 PPRC): 25 cpm
3H-Hypoxanthine Uptake ([2]; 200 μM, P. falciparum 0.125 PPRC): 20 cpm
3H-Hypoxanthine Uptake ([2]; 200 μM, P. falciparum 0.25 PPRC): 40 cpm
3H-Hypoxanthine Uptake ([2]; 200 μM, P. falciparum 0.5 PPRC): 50 cpm
Plate Count (Thousands) (Saccharomyces cerevisiae; 5 μM): 500 Thousands
Plate Count (Thousands) (Saccharomyces cerevisiae; 50 μM): 75 Thousands
Plate Count (Thousands) (Saccharomyces cerevisiae; 750 μM): 0 Thousands

CN(C)[C@@H]1C(O)=C(C(N)=O)C(=O)[C@@]2(O)C(O)=C3C(=O)c4c(O)cccc4[C@@](C)(O)[C@H]3C[C@@H]12 [Tetracycline, tetracycline]
Concentration of Brucella abortus in spleen tissue (Brucella abortus [3]): 4.4 × 10^3 Number per gram of spleen

CC[C@H](C)[C@H](NC(=O)CNC(=O)[C@H](CCC(N)=O)NC(=O)[C@H](CCCCN)NC(=O)[C@@H](NC(=O)[C@H](CCC(N)=O)NC(=O)[C@H](CCCCN)NC(=O)CNC(=O)[C@@H](NC(=O)[C@H](CCCNC(=N)N)NC(=O)[C@H](CC(=O)O)NC(=O)[C@@H](NC(=O)[C@H](CCCNC(=N)N)NC(=O)[C@H](CCCNC(=N)N)NC(=O)[C@H](Cc1ccccc1)NC(=O)[C@H](CC(C)C)NC(=O)[C@H](CCCNC(=N)N)NC(=O)[C@H](Cc1c[nH]c2ccccc12)NC(=O)[C@H](CCCNC(=N)N)NC(=O)[C@@H]1CCCN1C(=O)[C@@H](N)CCSC)[C@@H](C)CC)C(C)C)[C@@H](C)CC)C(=O)N[C@@H](CC(C)C)C(=O)N[C@@H](CCCNC(=N)N)C(=O)N[C@@H](C)C(=O)NCC(=O)N1CCC[C@H]1C(=O)N[C@@H](C)C(=O)N[C@H](C(=O)N[C@@H](C)C(=O)N[C@@H](CC(C)C)C(=O)N[C@H](C(=O)NCC(=O)N[C@@H](CC(=O)O)C(=O)N[C@@H](C)C(=O)N[C@@H](CCCNC(=N)N)C(=O)N[C@@H](C)C(=O)N[C@H](C(=O)NCC(N)=O)C(C)C)C(C)C)[C@@H](C)CC [Shiva 1] (H-MPRWRLFRRIDRVGKQIKQGILRAGPAIALVGDARAVG-NH2)
viability: 0%
viability at 0.01 µM: 100%
viability at 0.1 µM: 69.6%
viability at 1 µM: 37.9%
viability at 5 µM: 1.5%
viability at 7.5 µM: 0.1%
cytotoxicity at 100 µM [4, 11]: 84.9%
cytotoxicity at 100 µM ([4]; 100 μM, 5 × 10^5 cells per 0.5 ml, read-out: Percent Cytotoxicity): 98.7%
cytotoxicity at 100 µM ([4]; 100 μM, 10^6 cells per 0.5 ml, read-out: Percent Cytotoxicity): 89.2%
cytotoxicity [4, 12]: 42%
Percent Cytotoxicity (chromium release vs detergent-lysed cells) (EL-4 cells; 10 μM): 0.37%
Percent Cytotoxicity (chromium release vs detergent-lysed cells) (EL-4 cells; 25 μM): 16.7%
Percent Cytotoxicity (chromium release vs detergent-lysed cells) (EL-4 cells; 50 μM): 42.73%
Percent Cytotoxicity (chromium release vs detergent-lysed cells) (EL-4 cells; 100 μM): 82.35%
viability at 0.01 µM ([5]; peptide concentration 0.01 μM): 100%
viability at 0.1 µM ([5]; peptide concentration 0.1 μM): 81.8%
viability at 0.5 µM ([5]; peptide concentration 0.5 μM): 65%
viability at 1 µM ([5]; peptide concentration 1.0 μM): 42.1%
viability at 5 µM ([5]; peptide concentration 5.0 μM): 35.2%
viability ([5]; peptide concentration 10. μM): 1.2%
viability ([5]; peptide concentration 50. μM): 0%
immediate cause of death at autopsy (mammary carcinoma): shock
outcome following the third injection (mammary carcinoma; one mouse): died almost immediately
LD50 (concentration for 50% reduction in 3H-hypoxanthine uptake) ([2]; 24-hour period, relative to untreated infected red blood cells): about 10 μM
LD50 (concentration for 50% reduction in number of infected Vero cells) [6]: about 9 μM
viability ([7]; 10 μM): 85%
viability ([7]; 25 μM): 60%
viability ([7]; 50 μM): 50%
viability ([7]; 100 μM): 10%

CC[C@H](C)[C@H](NC(=O)CN)C(=O)NCC(=O)N[C@@H](C)C(=O)N[C@H](C(=O)N[C@@H](CC(C)C)C(=O)N[C@@H](CCCCN)C(=O)N[C@H](C(=O)N[C@@H](CC(C)C)C(=O)N[C@H](C(=O)N[C@H](C(=O)NCC(=O)N[C@@H](CC(C)C)C(=O)N1CCC[C@H]1C(=O)N[C@@H](C)C(=O)N[C@@H](CC(C)C)C(=O)N[C@H](C(=O)N[C@@H](CO)C(=O)N[C@@H](Cc1c[nH]c2ccccc12)C(=O)N[C@H](C(=O)N[C@@H](CCCCN)C(=O)N[C@@H](CCCNC(=N)N)C(=O)N[C@@H](CCCCN)C(=O)N[C@@H](CCCNC(=N)N)C(=O)N[C@@H](CCC(N)=O)C(=O)N[C@@H](CCC(N)=O)C(N)=O)[C@@H](C)CC)[C@@H](C)CC)[C@@H](C)O)[C@@H](C)O)C(C)C)C(C)C [Melittin, reference compound]
cytotoxicity at 30 min, 100 μM [4, 11]: 105%
cytotoxicity at 30 min, 100 μM [4, 12]: 107%
Percent Cytotoxicity (chromium release vs detergent-lysed cells) (EL-4 cells; 10 μM): 109.65%
Percent Cytotoxicity (chromium release vs detergent-lysed cells) (EL-4 cells; 25 μM): 106.65%
Percent Cytotoxicity (chromium release vs detergent-lysed cells) (EL-4 cells; 50 μM): 106.81%
Percent Cytotoxicity (chromium release vs detergent-lysed cells) (EL-4 cells; 100 μM): 102.43%
Plate Count (Thousands) (Saccharomyces cerevisiae; 5 μM): 260 Thousands
Plate Count (Thousands) (Saccharomyces cerevisiae; 50 μM): 0 Thousands

Lysozyme
LD50 (Pseudomonas solanacearum): >1000 µM
Viability (%) (S. intermedius 19930; 0.01 µM): 100%
Viability (%) (S. intermedius 19930; 0.1 µM): 100%
Viability (%) (S. intermedius 19930; 0.5 µM): 81.3%
Viability (%) (S. intermedius 19930; 1 µM): 53%
Viability (%) (S. intermedius 19930; 5 µM): 49.5%
LD50 [8]: >1000 µM
LD50 [9]: >1000 µM
LD50 [10]: >1000 µM
Viability (%) (Pseudomonas aeruginosa): 0.4%
Viability (%) (Pseudomonas aeruginosa; 0.01 µM): 100%
Viability (%) (Pseudomonas aeruginosa; 0.1 µM): 82.2%
Viability (%) (Pseudomonas aeruginosa; 1 µM): 52.1%
Viability (%) (Pseudomonas aeruginosa; 5 µM): 7.9%
Viability (%) (Pseudomonas aeruginosa; 7.5 µM): 0.6%
